Measurements taken from patent publication US9587187B2, “Alkyl trityl phenyl ethers” (Rohm and Haas Company, priority 2013, dated 2017).

Assay: Solubility studies of alkyl trityl phenyl ethers in solvents at −10° C.
Type: physicochemical
Details: freezer at −10° C., checked daily for crystallization
Method: Solubility Studies: The solubility properties of the alkyl trityl phenyl ethers were determined by mixing 0.1 grams of test sample with 0.9 grams of solvent. The mixtures were warmed to 60° C. for a few minutes to make homogeneous solutions. The solutions were cooled back to room temperature, and then they were placed into a freezer at −10° C. The solutions were checked daily to see if crystallization had occurred. The solvents evaluated were ADVASOL 200H (mixed aromatics solvent from Advanced Aromatics), ADVASOL 200H ND (naphthalene-depleted mixed aromatics solvent from Advanced Aromatics), cyclohexanone, and o-sec-butyl phenol (OSBP).

[1] = 10 wt.% alkyl trityl phenyl ether in 200H - OSBP (75:25, w:w)
[2] = 10 wt.% alkyl trityl phenyl ether in 200H - cyclohexanone (75:25, w:w)
[3] = 10 wt.% alkyl trityl phenyl ether in 200H ND - OSBP (75:25, w:w)
[4] = 10 wt.% alkyl trityl phenyl ether in 200H ND - cyclohexanone (75:25, w:w)

Structure (SMILES)	Solubility at −10° C., Days [1]	Solubility at −10° C., Days [2]	Solubility at −10° C., Days [3]	Solubility at −10° C., Days [4]	Solubility at −10° C., Days (10 wt.% alkyl trityl phenyl ether in 200H (ADVASOL 200H mixed aromatics solvent))	Solubility at −10° C., Days (10 wt.% alkyl trityl phenyl ether in 200H ND (naphthalene-depleted mixed aromatics solvent))
CCCCCCCCCCOc1ccc(C(c2ccccc2)(c2cccc(C)c2)c2cccc(C)c2)cc1C(C)CC (stereo not drawn) [mmMS4-10]	Soluble after 102	Soluble after 102				
CCCCCCOc1ccc(C(c2ccccc2)(c2ccccc2)c2ccc(C)cc2)cc1OCCCCCC [pM3,4-6, ((3,4-Bis(hexyloxy)phenyl)(p-tolyl)methylene)dibenzene]	Soluble after 76 days	Soluble after 7 days	Soluble after 76 days	Soluble after 7 days		
CCCCCCCCCCOc1ccc(C(c2ccccc2)(c2ccccc2)c2ccc(C)cc2)cc1C(C)CC (stereo not drawn) [pMS4-10]	Soluble after 7 days	Soluble after 7 days	Soluble after 7 days	Soluble after 7 days	Soluble after 7 days	Soluble after 7 days
